# Measurements taken from ChEMBL document CHEMBL1909294, “Translating clinical findings into knowledge in drug safety evaluation--drug induced liver injury prediction system (DILIps)” (PLoS Comput Biol, 2011).
# Assays:
# [1] = system: Hepatotoxicity;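 on HepSE cholecystitis: Cholecystitis-related hepatic side effect score drawn from the DILIps (drug-induced liver injury prediction) training data set; call rule not given here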;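 on HepSE cholelithiasis: hepatic side effect score for cholelithiasis, drawn from the DILIps training data for predicting drug-induced liver injury; call rule not given here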;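 on HepSE hepatitis: Hepatitis-related hepatic side effect score taken from the training data of DILIps, a prediction system for drug-induced liver injury; call rule not given here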;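 on HepSE hepatomegaly: hepatic side effect score for hepatomegaly, taken from the training set of the DILIps drug-induced liver injury prediction system; call rule not given here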;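 on HepSE jaundice: Jaundice-related hepatic side-effect score drawn from the training data of the DILIps (drug-induced liver injury prediction system); call rule not given here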; on HepSE liver disease: call rule not given here;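 on HepSE liver function tests abnormal: hepatic side effect score taken from the DILIps (drug-induced liver injury prediction system) training data, here covering abnormal liver function test findings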
# [2] = system: Hepatotoxicity; remark: listed apart in the source;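 on HepSE cholelithiasis: hepatic side effect score for cholelithiasis, drawn from the DILIps training data for predicting drug-induced liver injury; call rule not given here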;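 on HepSE hepatitis: Hepatitis-related hepatic side effect score taken from the training data of DILIps, a prediction system for drug-induced liver injury; call rule not given here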;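 on HepSE hepatomegaly: hepatic side effect score for hepatomegaly, taken from the training set of the DILIps drug-induced liver injury prediction system; call rule not given here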;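 on HepSE jaundice: Jaundice-related hepatic side-effect score drawn from the training data of the DILIps (drug-induced liver injury prediction system); call rule not given here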; on HepSE liver disease: call rule not given here;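 on HepSE liver function tests abnormal: hepatic side effect score taken from the DILIps (drug-induced liver injury prediction system) training data, here covering abnormal liver function test findings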
# [3] = system: Hepatotoxicity; remark: listed apart in the source;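 on HepSE cholelithiasis: hepatic side effect score for cholelithiasis, drawn from the DILIps training data for predicting drug-induced liver injury; call rule not given here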;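 on HepSE hepatitis: Hepatitis-related hepatic side effect score taken from the training data of DILIps, a prediction system for drug-induced liver injury; call rule not given here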;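 on HepSE hepatomegaly: hepatic side effect score for hepatomegaly, taken from the training set of the DILIps drug-induced liver injury prediction system; call rule not given here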;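 on HepSE jaundice: Jaundice-related hepatic side-effect score drawn from the training data of the DILIps (drug-induced liver injury prediction system); call rule not given here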; on HepSE liver disease: call rule not given here;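 on HepSE liver function tests abnormal: hepatic side effect score taken from the DILIps (drug-induced liver injury prediction system) training data, here covering abnormal liver function test findings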
# [4] = system: Hepatotoxicity; remark: listed apart in the source;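 on HepSE cholelithiasis: hepatic side effect score for cholelithiasis, drawn from the DILIps training data for predicting drug-induced liver injury; call rule not given here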;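 on HepSE hepatitis: Hepatitis-related hepatic side effect score taken from the training data of DILIps, a prediction system for drug-induced liver injury; call rule not given here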;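 on HepSE hepatomegaly: hepatic side effect score for hepatomegaly, taken from the training set of the DILIps drug-induced liver injury prediction system; call rule not given here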;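 on HepSE jaundice: Jaundice-related hepatic side-effect score drawn from the training data of the DILIps (drug-induced liver injury prediction system); call rule not given here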; on HepSE liver disease: call rule not given here;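 on HepSE liver function tests abnormal: hepatic side effect score taken from the DILIps (drug-induced liver injury prediction system) training data, here covering abnormal liver function test findings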
# [5] = system: Hepatotoxicity; remark: listed apart in the source; on HepSE liver disease: call rule not given here
# [6] = system: Hepatotoxicity; remark: listed apart in the source; on HepSE liver disease: call rule not given here
# [7] = system: Hepatotoxicity; remark: listed apart in the source
# [8] = system: Hepatotoxicity; remark: listed apart in the source
# [9] = system: Hepatotoxicity; remark: listed apart in the source
# [10] = system: Hepatotoxicity; remark: listed apart in the source
# [11] = system: Hepatotoxicity; remark: listed apart in the source
# [12] = system: Hepatotoxicity; remark: listed apart in the source
# [13] = system: Hepatotoxicity; remark: listed apart in the source
# [14] = system: Hepatotoxicity; remark: listed apart in the source
SMILES,HepSE_jaundice [1],HepSE_hepatomegaly [2],HepSE_liver function tests abnormal [3],HepSE_hepatitis [4],HepSE_liver disease [5],HepSE_cholelithiasis [6],HepSE_bilirubinemia [7],HepSE_cholecystitis [8],HepSE_hepatic necrosis [9],HepSE_cirrhosis [10],HepSE_Combined Scores [11],HepSE_elevated liver function tests [12],HepSE_hepatic failure [13],HepSE_liver fatty [14]
CCn1cc(C(=O)O)c(=O)c2ccc(C)nc21 [NALIDIXIC ACID],0,0,0,0,0,0,0,0,0,0,0,0,0,0
C=CCN1CC[C@]23c4c5ccc(O)c4O[C@H]2C(=O)CC[C@@]3(O)[C@H]1C5 [NALOXONE],0,0,0,0,0,0,0,0,0,0,0,0,0,0
O=C1CC[C@@]2(O)[C@H]3Cc4ccc(O)c5c4[C@@]2(CCN3CC2CC2)[C@H]1O5 [NALTREXONE],0,0,0,1,0,1,0,0,0,0,2,0,0,0
C[C@]12CC[C@H]3[C@@H](CCC4=CC(=O)CC[C@@H]43)[C@@H]1CC[C@@H]2O [NANDROLONE],0,0,0,0,0,0,0,0,0,0,0,0,0,0
c1ccc2c(CC3=NCCN3)cccc2c1 [NAPHAZOLINE],0,0,0,0,0,0,0,0,0,0,0,0,0,0
CC(C)[C@H]1CC[C@H](C(=O)N[C@H](Cc2ccccc2)C(=O)O)CC1 [NATEGLINIDE],1,0,0,1,1,0,0,0,0,0,3,0,0,0
OC(CNCC(O)C1CCc2cc(F)ccc2O1)C1CCc2cc(F)ccc2O1 (stereo unspecified) [NEBIVOLOL],0,0,0,0,0,0,0,0,0,0,0,0,0,0
CCCc1c2oc(C(=O)[O-])cc(=O)c2cc2c(=O)cc(C(=O)[O-])n(CC)c12.[Na+].[Na+] [NEDOCROMIL SODIUM],0,0,0,0,0,0,0,0,0,0,0,0,0,0
CCc1nn(CCCN2CCN(c3cccc(Cl)c3)CC2)c(=O)n1CCOc1ccccc1 [NEFAZODONE],0,0,1,1,0,0,0,0,1,0,3,0,0,0
